The test system of one test is aortic-banded animals. The experiment in a line: Delayed sudden cardiac death model (aortic banding plus daily low dose isoproterenol), survival and echocardiography. The test is classed as in vivo, guinea pig. The text has this:
As provided herein, the presently disclosed subject matter investigated whether these mechanisms underlie sudden cardiac death (SCD) and contractile decompensation in hypertrophic heart failure in two novel guinea-pig models of combined ascending aortic constriction together with β-adrenergic stimulation and whether therapy via mNCE inhibition was effective. Accordingly, in some embodiments, the presently disclosed subject matter provides a therapeutic strategy for treating heart failure.
Two models were developed: acute SCD and delayed SCD. The acute SCD model used a high dose of isoproterenol (5 mg/kg) administered by a single intraperitoneal injection two days after ascending aortic banding; and the delayed SCD model used low dose isoproterenol (week one: 1 mg/kg; subsequent weeks: 2 mg/kg), administered by daily intraperitoneal injection over the course of five weeks after aortic banding. Additionally, a therapeutic regime comprised of chronic treatment with an inhibitor of mNCE, e.g., CGP-37157, mean dose approximately 40 μg/kg, administered by implantation of an osmotic pump in the abdominal cavity (delivery rate: 0.015 mg/kg/hr) for extended delivery of the compound was initiated.
The delayed SCD protocol was used to investigate the effect of chronic CGP-37157 treatment on mortality and the development of heart failure. Survival was extended using this protocol as compared with the acute SCD model. In the absence of CGP-37157, however, the death rate of the animals approached 60% by 30 days post-banding (see FIG. 10). In contrast, more than 78% of the animals survived in the group with CGP-37157 treatment (see FIG. 10).
Further, echocardiographic studies were carried out before surgery and at four weeks after aortic banding (see FIG. 11). […] In the group with CGP-37157 treatment, however, cardiac function was maintained.

Test [1] addresses T1, mitochondrial Na+/Ca2+ exchanger (mNCE) (Cavia porcellus, UniProt H0V3X3).
T1 construct: in normal cardiac myocytes, with [Na^+]i elevated artificially using the patch clamp technique, and in myocytes isolated from failing hearts; host or cells: isolated cardiac myocytes (endogenous protein)
T1 sequence (H0V3X3 27-580): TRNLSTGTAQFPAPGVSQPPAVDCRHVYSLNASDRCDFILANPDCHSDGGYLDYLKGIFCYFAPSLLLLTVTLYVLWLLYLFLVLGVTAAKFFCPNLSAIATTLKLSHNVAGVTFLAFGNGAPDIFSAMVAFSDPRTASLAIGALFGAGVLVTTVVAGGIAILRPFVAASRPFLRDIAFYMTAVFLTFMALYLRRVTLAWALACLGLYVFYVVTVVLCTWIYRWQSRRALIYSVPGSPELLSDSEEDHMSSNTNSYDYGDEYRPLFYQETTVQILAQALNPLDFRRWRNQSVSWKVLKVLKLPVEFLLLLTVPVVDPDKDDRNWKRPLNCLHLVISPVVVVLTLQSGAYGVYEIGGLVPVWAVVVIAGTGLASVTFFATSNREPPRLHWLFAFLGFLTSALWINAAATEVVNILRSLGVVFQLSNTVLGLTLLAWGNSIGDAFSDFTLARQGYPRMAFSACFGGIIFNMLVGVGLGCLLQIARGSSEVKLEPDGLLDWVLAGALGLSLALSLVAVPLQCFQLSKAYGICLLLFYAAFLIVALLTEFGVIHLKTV
Particulars: cited from earlier work.

Test [2] concerns Guinea pig ventricular myocytes. In words: [Na+]i recording with SBFI in isolated cardiac myocytes. In kind it is cell-based. Particulars: ouabain at different concentrations, at rest or with 1-Hz stimulation. Here is the method: Guinea pig ventricular myocytes were isolated by enzymatic digestion as described previously. O'Rourke, B., et al., “Oscillations of membrane current and excitability driven by metabolic oscillations in heart cells,” Science, 265(5174):962-966 (Aug. 12, 1994). Cells were suspended in Dulbecco's Modification of Eagle's Medium (DMEM) supplemented with 5% fetal bovine serum, 1% penicillin/streptomycin, and 15 mmol/L HEPES, pH 7.4, and stored in a 5% CO2 incubator at 37° C.
Cytosolic Ca^2+ ([Ca^2+]c), mitochondrial Ca^2+ ([Ca^2+]m), and [Na^+]i were measured with the fluorescent indicators indo-1, rhod-2, and sodium-binding benzofuran isophthalate (SBFI), respectively (Invitrogen, Carlsbad, Calif.), and mitochondrial NADH was measured as the cellular autofluorescence with 360-nm excitation/450-nm emission. Indo-1 was loaded into cell with the membrane permeable form, indo-1 AM. To minimize indo-1 loading into the mitochondrial compartment, cells were briefly incubated with indo-1 AM at room temperature for 20 min. Rhod-2 and SBFI experiments were carried out as previously described. Maack et al., supra, Liu and O'Rourke, supra. […]
Isolated ventricular myocytes were loaded into a heated field-stimulation chamber (Warner Instruments, Hamden, Conn.) at 37° C. on the stage of a fluorescence microscope (Nikon Eclipse TE300, Nikon Instruments, Inc., Melville, N.Y.). […]

`O=C1CSC(c2ccccc2Cl)c2cc(Cl)ccc2N1` (stereo not shown) [CGP-37157, 7-chloro-5-(2-chlorophenyl)-1,5-dihydro-4,1-benzothiazepin-2(3H)-one]: the animals survived result in the test with aortic-banded animals (30 days post-banding, daily isoproterenol, CGP-37157 by osmotic pump, death rate approached 60% without CGP-37157) is recorded as “more than 78%”. Further, in the test with aortic-banded animals (CGP-37157-treated group, before surgery, n=6), the “Fractional Shortening (FS) at baseline” value is on record as 54.0%±1.0. The “Fractional Shortening (FS) at four weeks after aortic banding” value in the test on aortic-banded animals (CGP-37157-treated group, n=6, without CGP-37157 FS decreased from 54.9 to 42.5) is 59.2%±1.8. Further, the “left ventricular wall thickness” value in the test with aortic-banded animals (echocardiography four weeks after aortic banding versus before surgery) is on record as “increased similarly in both groups”. In addition, in test [1] (cells with elevated [Na+]i), the “mitochondrial NADH production” value was “restores mitochondrial NADH production”. Moreover, the “mitochondrial Ca2+ retention capacity” value in test [1] (inhibition of [Ca2+]m efflux) is reported as “increases mitochondrial Ca^2+ retention capacity”.

Turning to `C[C@@H]1O[C@@H](O[C@H]2C[C@@H](O)[C@]3(CO)[C@H]4[C@H](O)C[C@]5(C)[C@@H](C6=CC(=O)OC6)CC[C@]5(O)[C@@H]4CC[C@]3(O)C2)[C@H](O)[C@H](O)[C@H]1O` [ouabain, 1β,3β,5β,11α,14,19-Hexahydroxycard-20(22)-enolide 3-(6-deoxy-α-L-mannopyranoside, reference compound], the “[Na+]i” value in test [2] was “elevated [Na^+]i monotonically in a dose-dependent way”.

The record behind these values is patent US8791079B2, “Methods for treating heart failure by inhibiting the mitochondrial sodium-calcium exchanger (mNCE)” (priority 2009, dated 2014).
